Data reported in patent US20170050957A1, “4-AMINO-6-(HETEROCYCLIC)PICOLINATES AND 6-AMINO-2-(HETEROCYCLIC)PYRIMIDINE-4-CARBOXYLATES AND THEIR USE AS HERBICIDES” (Dow AgroSciences LLC, priority 2013, published 2017).
Where two headings read alike, the source gives them in different places.

Legend:
[1] = test system: Key Broadleaf Weed and Crop Species; test: Post-emergent Test II herbicidal activity (Table 15); type: in vivo; details: post-emergence, 336 h, 14 d; for pest or weed control at 35 g/ha: 35 g ai/ha; for pest or weed control at 70 g/ha: 70 g ai/ha; for pest or weed control at 140 g/ha: 140 g ai/ha
In short: (§1)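 Post-emergence spray; seedlings 7-21 d old, 1st-2nd true leaf; 187 L/ha; serial rates 1×-1/16×; solvent blank controls; subirrigated; visual % injury at 14 d.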

[2] = test system: Key Grass and Sedge Weeds as well as Grass Crops; test: Post-emergent Test II herbicidal activity (Table 16); type: in vivo; details: post-emergence, 336 h, 14 d; for pest or weed control at 35 g/ha: 35 g ai/ha; for pest or weed control at 70 g/ha: 70 g ai/ha; for pest or weed control at 140 g/ha: 140 g ai/ha
In short: as §1

[3] = Abutilon theophrasti, velvetleaf (Abutilon theophrasti), read-out: Visual Growth Reduction (%) 14 Days After Application, ABUTH
[4] = Amaranthus retroflexus, redroot pigweed (Amaranthus retroflexus), read-out: Visual Growth Reduction (%) 14 Days After Application, AMARE
[5] = Brassica napus, oilseed rape, canola (Brassica napus), read-out: Visual Growth Reduction (%) 14 Days After Application, BRSNN
[6] = Chenopodium album, lambsquarters (Chenopodium album), read-out: Visual Growth Reduction (%) 14 Days After Application, CHEAL
[7] = Euphorbia heterophylla, wild poinsettia (Euphorbia heterophylla), read-out: Visual Growth Reduction (%) 14 Days After Application, EPHHL
[8] = Helianthus annuus, sunflower (Helianthus annuus), read-out: Visual Growth Reduction (%) 14 Days After Application, HELAN
[9] = Cyperus esculentus, yellow nutsedge (Cyperus esculentus), read-out: Visual Growth Reduction (%) 14 Days After Application, CYPES
[10] = Echinochloa crus-galli, barnyardgrass (Echinochloa crus-galli), read-out: Visual Growth Reduction (%) 14 Days After Application, ECHCG
[11] = Oryza sativa, rice (Oryza sativa), read-out: Visual Growth Reduction (%) 14 Days After Application, ORYSA
[12] = Setaria faberi, giant foxtail (Setaria faberi), read-out: Visual Growth Reduction (%) 14 Days After Application, SETFA
[13] = Triticum aestivum, wheat, spring (Triticum aestivum), read-out: Visual Growth Reduction (%) 14 Days After Application, TRZAS
[14] = Zea mays, maize, corn (Zea mays), read-out: Visual Growth Reduction (%) 14 Days After Application, ZEAMX

## COC(=O)c1nc(-c2cc3[nH]ccc3cc2F)cc(N)c1Cl [Compound 1.25]
[1]; [3]
  pest or weed control at 35 g/ha: 0 to 29%
  pest or weed control at 70 g/ha: 0 to 29%
  pest or weed control at 140 g/ha: 30 to 44%
[1]; [4]
  pest or weed control at 35 g/ha: 75 to 84%
  pest or weed control at 70 g/ha: 85 to 94%
  pest or weed control at 140 g/ha: 95 to 100%
[1]; [5]
  pest or weed control at 35 g/ha: 60 to 74%
  pest or weed control at 70 g/ha: 75 to 84%
  pest or weed control at 140 g/ha: 85 to 94%
[1]; [6]
  pest or weed control at 35 g/ha: 0 to 29%
  pest or weed control at 70 g/ha: 60 to 74%
  pest or weed control at 140 g/ha: 60 to 74%
[1]; [7]
  pest or weed control at 35 g/ha: 0 to 29%
  pest or weed control at 70 g/ha: 0 to 29%
  pest or weed control at 140 g/ha: 30 to 44%
[1]; [8]
  pest or weed control at 35 g/ha: 0 to 29%
  pest or weed control at 70 g/ha: 0 to 29%
  pest or weed control at 140 g/ha: 0 to 29%
[2]; [9]
  pest or weed control at 35 g/ha: 0 to 29%
  pest or weed control at 70 g/ha: 0 to 29%
  pest or weed control at 140 g/ha: 0 to 29%
[2]; [10]
  pest or weed control at 35 g/ha: 0 to 29%
  pest or weed control at 70 g/ha: 0 to 29%
  pest or weed control at 140 g/ha: 0 to 29%
[2]; [11]
  pest or weed control at 35 g/ha: 0 to 29%
  pest or weed control at 70 g/ha: 0 to 29%
  pest or weed control at 140 g/ha: 0 to 29%
[2]; [12]
  pest or weed control at 35 g/ha: 0 to 29%
  pest or weed control at 70 g/ha: 0 to 29%
  pest or weed control at 140 g/ha: 0 to 29%
[2]; [13]
  pest or weed control at 35 g/ha: 0 to 29%
  pest or weed control at 70 g/ha: 0 to 29%
  pest or weed control at 140 g/ha: 0 to 29%
[2]; [14]
  pest or weed control at 35 g/ha: 0 to 29%
  pest or weed control at 70 g/ha: 0 to 29%
  pest or weed control at 140 g/ha: 0 to 29%

## Nc1cc(-c2ccc3cc[nH]c3c2F)nc(C(=O)O)c1Cl [Compound 1.24]
[1]; [3]
  pest or weed control at 35 g/ha: 85 to 94%
  pest or weed control at 70 g/ha: 95 to 100%
  pest or weed control at 140 g/ha: 95 to 100%
[1]; [4]
  pest or weed control at 35 g/ha: 95 to 100%
  pest or weed control at 70 g/ha: 95 to 100%
  pest or weed control at 140 g/ha: 95 to 100%
[1]; [5]
  pest or weed control at 35 g/ha: 85 to 94%
  pest or weed control at 70 g/ha: 45 to 59%
  pest or weed control at 140 g/ha: 95 to 100%
[1]; [6]
  pest or weed control at 35 g/ha: 85 to 94%
  pest or weed control at 70 g/ha: 95 to 100%
  pest or weed control at 140 g/ha: 95 to 100%
[1]; [7]
  pest or weed control at 35 g/ha: 95 to 100%
  pest or weed control at 70 g/ha: 95 to 100%
  pest or weed control at 140 g/ha: 95 to 100%
[1]; [8]
  pest or weed control at 35 g/ha: 60 to 74%
  pest or weed control at 70 g/ha: 75 to 84%
  pest or weed control at 140 g/ha: 85 to 94%
[2]; [9]
  pest or weed control at 35 g/ha: 0 to 29%
  pest or weed control at 70 g/ha: 0 to 29%
  pest or weed control at 140 g/ha: 0 to 29%
[2]; [10]
  pest or weed control at 35 g/ha: 0 to 29%
  pest or weed control at 70 g/ha: 0 to 29%
  pest or weed control at 140 g/ha: 0 to 29%
[2]; [11]
  pest or weed control at 35 g/ha: 0 to 29%
  pest or weed control at 70 g/ha: 0 to 29%
  pest or weed control at 140 g/ha: 0 to 29%
[2]; [12]
  pest or weed control at 35 g/ha: 0 to 29%
  pest or weed control at 70 g/ha: 45 to 59%
  pest or weed control at 140 g/ha: 60 to 74%
[2]; [13]
  pest or weed control at 35 g/ha: 0 to 29%
  pest or weed control at 70 g/ha: 30 to 44%
  pest or weed control at 140 g/ha: 45 to 59%
[2]; [14]
  pest or weed control at 35 g/ha: 0 to 29%
  pest or weed control at 70 g/ha: 0 to 29%
  pest or weed control at 140 g/ha: 0 to 29%
